Experimental data reported in article PMC5564600 (Oncotarget, 2017).

Legend:
Test in all cases: biochemical
Format in all cases: binding
panel of 442 kinases [1] = target: T1, panel of 442 kinases (Homo sapiens, UniProt O75914); details: kinase PAK3; for remaining activity at 1 µM: read-out: % of control at 1 µM
T1 construct: purchased Ambit Biosciences (scanMAXX KINOMEscan)

panel of 442 kinases [2] = target: T2, panel of 442 kinases (Homo sapiens, UniProt P00533); details: EGFR; for remaining activity at 1 µM: read-out: % of control at 1 µM
T2 construct: purchased Ambit Biosciences (scanMAXX KINOMEscan)
T2 sequence (P00533 25-1210): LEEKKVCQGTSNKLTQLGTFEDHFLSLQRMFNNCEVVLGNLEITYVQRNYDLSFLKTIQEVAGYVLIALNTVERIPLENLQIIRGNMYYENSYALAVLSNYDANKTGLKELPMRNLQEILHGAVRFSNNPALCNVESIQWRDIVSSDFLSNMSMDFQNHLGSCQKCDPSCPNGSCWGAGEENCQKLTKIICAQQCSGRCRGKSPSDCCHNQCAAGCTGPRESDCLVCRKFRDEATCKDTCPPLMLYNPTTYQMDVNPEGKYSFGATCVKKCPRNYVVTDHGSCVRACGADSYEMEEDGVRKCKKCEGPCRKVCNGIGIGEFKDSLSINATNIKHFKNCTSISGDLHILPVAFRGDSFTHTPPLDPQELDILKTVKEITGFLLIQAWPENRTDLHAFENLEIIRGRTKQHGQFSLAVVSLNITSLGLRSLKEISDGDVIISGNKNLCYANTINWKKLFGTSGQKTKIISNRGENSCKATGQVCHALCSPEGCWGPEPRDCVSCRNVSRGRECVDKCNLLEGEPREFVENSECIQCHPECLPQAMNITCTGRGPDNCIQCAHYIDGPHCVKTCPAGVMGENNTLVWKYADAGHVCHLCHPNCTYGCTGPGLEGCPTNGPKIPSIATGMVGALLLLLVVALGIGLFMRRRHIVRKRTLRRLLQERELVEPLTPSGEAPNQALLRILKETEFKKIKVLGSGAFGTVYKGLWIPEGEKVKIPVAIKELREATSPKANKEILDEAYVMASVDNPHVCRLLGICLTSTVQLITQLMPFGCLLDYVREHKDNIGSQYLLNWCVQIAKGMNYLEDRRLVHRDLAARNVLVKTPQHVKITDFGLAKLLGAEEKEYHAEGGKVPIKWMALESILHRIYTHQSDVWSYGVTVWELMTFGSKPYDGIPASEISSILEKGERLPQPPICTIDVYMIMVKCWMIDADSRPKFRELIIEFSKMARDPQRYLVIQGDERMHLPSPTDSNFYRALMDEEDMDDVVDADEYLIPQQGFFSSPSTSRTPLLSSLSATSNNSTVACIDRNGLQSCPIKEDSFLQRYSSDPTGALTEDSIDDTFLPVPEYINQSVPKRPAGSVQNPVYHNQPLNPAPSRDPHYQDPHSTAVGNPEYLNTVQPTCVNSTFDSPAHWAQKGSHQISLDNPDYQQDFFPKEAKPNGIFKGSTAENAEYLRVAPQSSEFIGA

panel of 442 kinases [3] = target: T3, panel of 442 kinases (Homo sapiens, UniProt P21709); details: EPHA1; for remaining activity at 1 µM: read-out: % of control at 1 µM
T3 construct: purchased Ambit Biosciences (scanMAXX KINOMEscan)
T3 sequence (P21709 26-976): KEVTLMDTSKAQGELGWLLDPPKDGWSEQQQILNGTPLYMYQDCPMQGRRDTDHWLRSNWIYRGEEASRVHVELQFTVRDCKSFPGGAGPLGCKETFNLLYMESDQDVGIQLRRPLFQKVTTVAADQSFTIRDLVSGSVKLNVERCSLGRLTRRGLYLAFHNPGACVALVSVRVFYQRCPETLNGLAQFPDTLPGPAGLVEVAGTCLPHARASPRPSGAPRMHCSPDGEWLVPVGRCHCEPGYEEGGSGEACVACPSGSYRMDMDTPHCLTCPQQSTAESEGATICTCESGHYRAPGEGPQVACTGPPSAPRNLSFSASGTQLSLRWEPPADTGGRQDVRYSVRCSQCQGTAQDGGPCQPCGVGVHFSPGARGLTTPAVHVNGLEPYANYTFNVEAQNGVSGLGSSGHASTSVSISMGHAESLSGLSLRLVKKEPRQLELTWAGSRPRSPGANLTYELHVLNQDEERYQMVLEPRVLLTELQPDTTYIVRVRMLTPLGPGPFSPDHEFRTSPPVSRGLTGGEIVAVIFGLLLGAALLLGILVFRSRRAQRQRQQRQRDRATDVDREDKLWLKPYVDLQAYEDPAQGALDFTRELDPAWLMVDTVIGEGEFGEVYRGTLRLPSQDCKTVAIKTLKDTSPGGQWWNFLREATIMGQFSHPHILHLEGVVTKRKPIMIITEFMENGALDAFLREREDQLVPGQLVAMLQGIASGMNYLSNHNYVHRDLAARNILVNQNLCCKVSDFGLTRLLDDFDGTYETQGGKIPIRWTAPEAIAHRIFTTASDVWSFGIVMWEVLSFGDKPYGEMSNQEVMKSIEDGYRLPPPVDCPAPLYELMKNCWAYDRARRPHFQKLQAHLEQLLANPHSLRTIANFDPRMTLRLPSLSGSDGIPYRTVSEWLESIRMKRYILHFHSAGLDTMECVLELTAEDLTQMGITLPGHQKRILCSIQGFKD

panel of 442 kinases [4] = target: T4, panel of 442 kinases (Homo sapiens, UniProt P31152); details: ERK4; for remaining activity at 1 µM: read-out: % of control at 1 µM
T4 construct: purchased Ambit Biosciences (scanMAXX KINOMEscan)
T4 sequence (P31152 whole entry): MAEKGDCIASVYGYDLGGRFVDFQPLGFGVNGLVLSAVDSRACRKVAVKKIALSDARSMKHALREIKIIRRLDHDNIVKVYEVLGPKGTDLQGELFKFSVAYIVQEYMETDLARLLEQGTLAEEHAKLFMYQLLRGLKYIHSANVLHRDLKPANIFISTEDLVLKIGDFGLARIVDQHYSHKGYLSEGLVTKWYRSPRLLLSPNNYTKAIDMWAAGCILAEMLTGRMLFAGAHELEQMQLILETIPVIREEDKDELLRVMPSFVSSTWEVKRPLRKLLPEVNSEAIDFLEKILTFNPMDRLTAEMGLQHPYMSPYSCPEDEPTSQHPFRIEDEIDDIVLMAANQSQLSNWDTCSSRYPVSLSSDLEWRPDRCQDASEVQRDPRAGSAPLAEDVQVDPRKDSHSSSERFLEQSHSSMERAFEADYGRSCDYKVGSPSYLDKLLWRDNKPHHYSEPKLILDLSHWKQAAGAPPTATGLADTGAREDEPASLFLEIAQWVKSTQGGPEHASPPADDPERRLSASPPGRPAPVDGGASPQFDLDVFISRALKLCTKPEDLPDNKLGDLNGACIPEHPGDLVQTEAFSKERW

panel of 442 kinases [5] = target: T5, panel of 442 kinases (Homo sapiens, UniProt P42679); details: CTK; for remaining activity at 1 µM: read-out: % of control at 1 µM
T5 construct: purchased Ambit Biosciences (scanMAXX KINOMEscan)
T5 sequence (P42679 1-507): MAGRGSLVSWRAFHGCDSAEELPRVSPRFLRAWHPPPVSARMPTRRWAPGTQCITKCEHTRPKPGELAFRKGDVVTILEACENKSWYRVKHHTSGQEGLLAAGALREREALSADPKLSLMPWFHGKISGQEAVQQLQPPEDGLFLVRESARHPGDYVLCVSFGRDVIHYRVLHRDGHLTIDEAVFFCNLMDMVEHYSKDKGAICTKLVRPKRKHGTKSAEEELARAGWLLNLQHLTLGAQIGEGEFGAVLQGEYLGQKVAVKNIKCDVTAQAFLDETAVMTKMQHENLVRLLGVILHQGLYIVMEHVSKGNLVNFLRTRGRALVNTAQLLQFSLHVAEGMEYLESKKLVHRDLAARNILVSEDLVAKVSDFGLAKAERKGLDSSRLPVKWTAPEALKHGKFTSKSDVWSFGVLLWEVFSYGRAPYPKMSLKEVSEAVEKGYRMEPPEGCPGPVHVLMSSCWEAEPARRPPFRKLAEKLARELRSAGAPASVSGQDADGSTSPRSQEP

panel of 442 kinases [6] = target: T6, panel of 442 kinases (Homo sapiens, UniProt P54646); details: AMPK-alpha2; for remaining activity at 1 µM: read-out: % of control at 1 µM
T6 construct: purchased Ambit Biosciences (scanMAXX KINOMEscan)
T6 sequence (P54646 whole entry): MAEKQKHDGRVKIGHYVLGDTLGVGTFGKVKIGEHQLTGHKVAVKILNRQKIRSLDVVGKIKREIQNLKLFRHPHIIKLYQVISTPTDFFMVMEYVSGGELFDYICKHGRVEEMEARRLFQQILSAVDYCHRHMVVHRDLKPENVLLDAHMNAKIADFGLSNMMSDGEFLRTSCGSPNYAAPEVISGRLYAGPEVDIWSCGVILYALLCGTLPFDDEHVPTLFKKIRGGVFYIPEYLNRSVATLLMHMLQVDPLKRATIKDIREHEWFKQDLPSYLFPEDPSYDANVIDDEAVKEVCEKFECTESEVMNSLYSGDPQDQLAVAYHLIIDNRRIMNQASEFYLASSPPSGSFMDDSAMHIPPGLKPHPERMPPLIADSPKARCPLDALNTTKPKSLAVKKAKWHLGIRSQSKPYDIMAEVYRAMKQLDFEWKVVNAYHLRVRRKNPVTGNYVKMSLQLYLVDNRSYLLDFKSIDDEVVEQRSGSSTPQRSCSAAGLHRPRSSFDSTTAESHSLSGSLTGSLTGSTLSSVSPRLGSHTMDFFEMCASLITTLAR

panel of 442 kinases [7] = target: T7, panel of 442 kinases (Homo sapiens, UniProt Q9UKI8); details: kinase TLK1; for remaining activity at 1 µM: read-out: TLK1 (% of control at 1 µM)
T7 construct: purchased Ambit Biosciences (scanMAXX KINOMEscan)
T7 sequence (Q9UKI8 1-766): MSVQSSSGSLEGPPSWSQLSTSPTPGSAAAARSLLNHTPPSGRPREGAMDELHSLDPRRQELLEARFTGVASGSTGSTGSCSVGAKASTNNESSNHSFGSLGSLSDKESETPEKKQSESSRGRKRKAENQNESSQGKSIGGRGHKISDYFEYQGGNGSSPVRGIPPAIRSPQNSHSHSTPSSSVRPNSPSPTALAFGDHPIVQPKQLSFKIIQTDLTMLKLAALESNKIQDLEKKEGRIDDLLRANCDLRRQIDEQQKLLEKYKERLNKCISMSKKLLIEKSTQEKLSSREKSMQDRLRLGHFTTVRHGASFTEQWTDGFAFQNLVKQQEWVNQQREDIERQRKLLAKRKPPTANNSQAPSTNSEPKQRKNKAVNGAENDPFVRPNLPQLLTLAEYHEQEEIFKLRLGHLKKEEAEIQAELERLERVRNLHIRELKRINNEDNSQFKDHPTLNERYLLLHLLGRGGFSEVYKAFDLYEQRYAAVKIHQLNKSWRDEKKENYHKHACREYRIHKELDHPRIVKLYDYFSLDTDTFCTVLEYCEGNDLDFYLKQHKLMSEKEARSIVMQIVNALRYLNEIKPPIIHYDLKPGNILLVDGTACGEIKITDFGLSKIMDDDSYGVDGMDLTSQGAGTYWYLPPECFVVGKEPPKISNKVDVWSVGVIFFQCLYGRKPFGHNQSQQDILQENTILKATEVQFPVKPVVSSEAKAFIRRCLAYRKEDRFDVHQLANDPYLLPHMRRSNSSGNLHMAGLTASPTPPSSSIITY

panel of 442 kinases [8] = target: T8, panel of 442 kinases (Homo sapiens, UniProt Q9Y6E0); details: kinase MST3; for remaining activity at 1 µM: read-out: % of control at 1 µM
T8 construct: purchased Ambit Biosciences (scanMAXX KINOMEscan)
T8 sequence (Q9Y6E0 whole entry): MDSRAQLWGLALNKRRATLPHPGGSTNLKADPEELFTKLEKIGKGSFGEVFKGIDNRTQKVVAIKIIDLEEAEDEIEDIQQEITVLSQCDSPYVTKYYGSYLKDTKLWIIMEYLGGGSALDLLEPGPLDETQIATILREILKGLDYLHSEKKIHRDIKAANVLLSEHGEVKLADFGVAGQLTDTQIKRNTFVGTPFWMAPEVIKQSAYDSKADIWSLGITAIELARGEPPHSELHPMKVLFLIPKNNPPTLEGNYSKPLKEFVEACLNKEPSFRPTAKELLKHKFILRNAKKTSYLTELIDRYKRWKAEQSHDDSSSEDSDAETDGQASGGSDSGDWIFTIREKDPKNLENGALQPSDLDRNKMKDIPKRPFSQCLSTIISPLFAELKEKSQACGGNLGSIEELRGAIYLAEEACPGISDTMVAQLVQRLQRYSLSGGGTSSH

[9] = 10 µM, read-out: % of control at 10 µM

T1 sequence (O75914 whole entry): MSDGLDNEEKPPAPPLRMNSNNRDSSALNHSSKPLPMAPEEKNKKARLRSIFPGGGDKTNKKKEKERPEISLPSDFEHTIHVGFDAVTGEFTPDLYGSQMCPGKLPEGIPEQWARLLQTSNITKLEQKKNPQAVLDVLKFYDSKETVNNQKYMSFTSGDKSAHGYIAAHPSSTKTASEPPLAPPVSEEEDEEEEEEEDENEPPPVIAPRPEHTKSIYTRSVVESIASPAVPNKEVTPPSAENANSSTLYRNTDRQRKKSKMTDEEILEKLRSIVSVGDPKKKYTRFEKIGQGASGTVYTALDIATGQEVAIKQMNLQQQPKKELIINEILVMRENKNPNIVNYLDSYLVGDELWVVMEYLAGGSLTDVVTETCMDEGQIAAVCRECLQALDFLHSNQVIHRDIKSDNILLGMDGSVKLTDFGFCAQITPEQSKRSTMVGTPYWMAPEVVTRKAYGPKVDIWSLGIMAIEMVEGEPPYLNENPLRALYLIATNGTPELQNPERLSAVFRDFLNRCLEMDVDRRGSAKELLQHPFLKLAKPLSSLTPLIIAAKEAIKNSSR

| Structure (SMILES) | remaining activity at 1 µM (panel of 442 kinases [1]) [%] | remaining activity at 10 µM (panel of 442 kinases [1]; [9]) [%] | remaining activity at 1 µM (panel of 442 kinases [2]) [%] | remaining activity at 10 µM (panel of 442 kinases [2]; [9]) [%] | remaining activity at 1 µM (panel of 442 kinases [3]) [%] | remaining activity at 10 µM (panel of 442 kinases [3]; [9]) [%] | remaining activity at 1 µM (panel of 442 kinases [4]) [%] | remaining activity at 10 µM (panel of 442 kinases [4]; [9]) [%] | remaining activity at 1 µM (panel of 442 kinases [5]) [%] | remaining activity at 10 µM (panel of 442 kinases [5]; [9]) [%] | remaining activity at 1 µM (panel of 442 kinases [6]) [%] | remaining activity at 10 µM (panel of 442 kinases [6]; [9]) [%] | remaining activity at 1 µM (panel of 442 kinases [7]) [%] | remaining activity at 10 µM (panel of 442 kinases [7]; 10 µM, read-out: TLK1 (% of control at 10 µM)) [%] | remaining activity at 1 µM (panel of 442 kinases [8]) [%] | remaining activity at 10 µM (panel of 442 kinases [8]; [9]) [%] |
| --- | --- | --- | --- | --- | --- | --- | --- | --- | --- | --- | --- | --- | --- | --- | --- | --- |
| Nc1cc(C(F)(F)F)c(-c2cc(N3CCOCC3)nc(N3CCOCC3)n2)cn1 [Buparlisib] | 89 | 100 | 83 | 100 | 90 | 100 | 100 | 100 | 100 | 100 | 100 | 100 | 100 | 82 | 100 | 100 |
| Cn1c(=O)n(-c2ccc(C(C)(C)C#N)cc2)c2c3cc(-c4cnc5ccccc5c4)ccc3ncc21 [Dactolisib, 2-methyl-2-[4-(3-methyl-2-oxo-8-quinolin-3-yl-2,3-dihydroimidazo[4,5-c]quinolin-1-yl)-phenyl] propionitrile] | 86 |  | 80 |  | 100 |  | 100 |  | 92 |  | 100 |  | 75 |  | 82 |  |
| COc1ncc(-c2ccc3nccc(-c4ccnnc4)c3c2)cc1NS(=O)(=O)c1ccc(F)cc1F [Omipalisib] | 100 |  | 86 |  | 97 |  | 100 |  | 100 |  | 99 |  | 95 |  | 100 |  |
| FC(F)c1nc2ccccc2n1-c1nc(N2CCOCC2)nc(N2CCOCC2)n1 [ZSTK474, 2-(difluoromethyl)-1-[4,6-di(4-morpholinyl)-1,3,5-triazin-2-yl]-1H-benzimidazole] | 73 |  | 94 |  | 99 |  | 85 |  | 100 |  | 100 |  | 100 |  | 99 |  |
